# Data reported in article PMC5666514 (Chemical Science, 2015).
# Where two headings read alike, the source gives them in different places. *1 amine or outer side, *2 acyl side, *3 side chain or, on linkers, in order; H or OH if unused. Where a SMILES comes first, the peptide text is derived from it. Bridges are numbered along the chain shown (N, C = ends). Roman numbers before positions name the chains, in order. [ ]: non-standard residue; d: D form. The star is where a group is joined. 5FAM = O=C1OC2(c3ccc(O)cc3Oc3cc(O)ccc32)c2ccc(C(=O)*)cc21; Quinoxaline2carbonyl = O=C(c1cnc2ccccc2n1)*; Ethylenediamine = C(CN[*:2])N[*:1]; NMeV = CN[C@H](C(=O)O)C(C)C; NMeAbu = CC[C@H](NC)C(=O)O; NMeC = CN[C@@H](CS)C(=O)O; Abu = CC[C@H](N)C(=O)O; Dap = NC[C@H](N)C(=O)O
# Columns and labels:
# [1] = system: A-549 lung carcinoma cells; test: cells; type: cell-based, human
# Description: (§1) The twelve synthesized compounds were evaluated in vitro using the following four human cancer cell lines: cervical adenocarcinoma (HeLa), lung carcinoma (A-549), breast adenocarcinoma (SK-BR-3) and colon adenocarcinoma (HT-29). Cells were treated for 24 h with various concentrations of the compounds, and their cytotoxic activity was then assessed using the [3-(4,5-dimethylthiazol-2-yl)-2,5-diphenyltetrazolium] bromide (MTT) assay.[29] Analysis of the dose-response data obtained yielded IC50 (50% inhibitory concentration) values, which are detailed in Table 1.
# (§2) Normally growing cells were plated at 5 × 10^3 cells per well into 96-well plates and incubated for 24 h at 37 °C to allow attachment to the surface. Samples were then added dissolved in a DMSO–PBS vehicle (less than 1% in culture medium) at a range of concentrations. Drugs were run in triplicate or greater and control wells contained appropriate percentages of vehicle. After 24 h of exposure, the antitumor effect was measured using a solution of MTT, which is bioreduced by viable cells into formazan. The formed crystals were solubilized using DMSO and the amount of formazan was measured by reading the absorbance at 570 nm. The absorbance of wells containing only the MTT reagent (the plate blank) was subtracted from all wells.
# (§3) The IC50 values were determined by dose response curve analysis and statistical analysis using GraphPad Prism software version 5.0a. […]
# (§4) mM L-glutamine and antibiotics.
# (§5) in a humidified atmosphere containing 5% CO2. For sub-culturing, cells were detached from
# (§6) 5 mL of fresh medium preheated at 37 °C. Cellular density was determined in a Neubauer
# [2] = system: HT-29 colon adenocarcinoma cells; test: cells; type: cell-based, human
# Description: as §1, §2, §3, §4, §5, §6
# [3] = system: HeLa cervical adenocarcinoma cells; test: cells; type: cell-based, human
# Description: as §1, §2, §3, §4, §5, §6
# [4] = system: SK-BR-3 breast adenocarcinoma cells; test: cells; type: cell-based, human
# Description: as §1, §2, §3, §4, §5, §6
# red blood cells = conditions: human RBCs, PBS, 1 h at 37 °C, concentrations up to 100 μM, absorbance 560 nm, n=3
# [5] = system: DNA (footprinting substrates MS1 and HexA); test: DNase I footprinting; type: binding; conditions: MS1 and HexA fragments; RZ compounds up to 500 μM (RZ2 up to 1 mM)
# Description: compounds are 500 M and 100 M; the concentrations for echinomycin are 10 M and 5 M.
# [6] = MTT assay, 24 h exposure, run in triplicate or greater, read-out: IC50, Cervix HeLa
# [7] = MTT assay, 24 h exposure, run in triplicate or greater, read-out: IC50, Lung A-549
# [8] = MTT assay, 24 h exposure, run in triplicate or greater, read-out: IC50, Colon HT-29
# [9] = MTT assay, 24 h exposure, run in triplicate or greater, read-out: IC50, Breast SK-BR-3
Molecule,IC50 ([1]; 24 h),IC50 ([2]; 24 h),IC50 ([3]; 24 h),IC50 ([4]; 24 h),further results
"COc1cccc2c1C(=O)c1c(O)c3c(c(O)c1C2=O)C[C@@](O)(C(=O)CO)C[C@@H]3O[C@H]1C[C@H](N)[C@H](O)[C@H](C)O1 [Doxorubicin, reference compound]",,,,,"IC50 ([1]; Homo sapiens, A549, MTT assay, 24 h exposure, run in triplicate or greater, read-out: IC50, Lung A-549): 0.6 µM; IC50 ([2]; Homo sapiens, HT-29, MTT assay, 24 h exposure, run in triplicate or greater, read-out: IC50, Colon HT-29): 8.9 µM; IC50 ([3]; Homo sapiens, HeLa, MTT assay, 24 h exposure, run in triplicate or greater, read-out: IC50, Cervix HeLa): 5.4 µM; IC50 ([4]; Homo sapiens, SK-BR-3, MTT assay, 24 h exposure, run in triplicate or greater, read-out: IC50, Breast SK-BR-3): 0.5 µM"
CC[C@@H](C(=O)N(C)[C@H](C(=O)N[C@H](C(=O)N1CCC[C@@H]1C(=O)NCC(=O)N[C@H](C(=O)N(C)[C@H](C(=O)N(C)[C@@H](CC)C(=O)NCCNC(=O)c1cnc2ccccc2n1)C(C)C)C(C)C)C(C)C)C(C)C)N(C)C(=O)[C@H](CO)NC(=O)c1cnc2ccccc2n1 [RZ1] (Quinoxaline2carbonyl-S[NMeAbu][NMeV]V[dP]GV[NMeV][NMeAbu]-{Ethylenediamine-Quinoxaline2carbonyl}),51.2 µM,88.4 µM,42.2 µM,96.7 µM,
CC[C@H](NC(=O)[C@H](CNC(=O)c1ccc2c(c1)C(=O)OC21c2ccc(O)cc2Oc2cc(O)ccc21)NC(=O)c1cnc2ccccc2n1)C(=O)N[C@H](C(=O)N[C@H](C(=O)N1CCC[C@@H]1C(=O)NCC(=O)N[C@H](C(=O)N[C@H](C(=O)N[C@@H](CC)C(=O)NCCNC(=O)c1cnc2ccccc2n1)C(C)C)C(C)C)C(C)C)C(C)C [RZ2CF] (Quinoxaline2carbonyl-[Dap](5FAM)[Abu]VV[dP]GVV[Abu]-{Ethylenediamine-Quinoxaline2carbonyl}),,,,,"IC50 [3, 6]: 16.7 µM"
CC[C@H](NC(=O)[C@H](CO)NC(=O)c1cnc2ccccc2n1)C(=O)N[C@H](C(=O)N[C@H](C(=O)N1CCC[C@@H]1C(=O)NCC(=O)N[C@H](C(=O)N[C@H](C(=O)N[C@@H](CC)C(=O)NCCNC(=O)c1cnc2ccccc2n1)C(C)C)C(C)C)C(C)C)C(C)C [RZ2] (Quinoxaline2carbonyl-S[Abu]VV[dP]GVV[Abu]-{Ethylenediamine-Quinoxaline2carbonyl}),,,,,"IC50 [1, 7]: 11.9 µM; IC50 [2, 8]: 6.8 µM; IC50 [3, 6]: 2.7 µM; IC50 [4, 9]: 5.4 µM; hemolysis (hemoglobin release from red blood cells) (red blood cells): not hemolytic"
CC[C@@H](C(=O)NCCNC(=O)c1cnc2ccccc2n1)N(C)C(=O)[C@H](C(C)C)N(C)C(=O)[C@@H](NC(=O)CNC(=O)[C@H]1CCCN1C(=O)[C@@H](NC(=O)[C@H](C(C)C)N(C)C(=O)[C@H](CC)N(C)C(=O)[C@@H](CO)NC(=O)c1cnc2ccccc2n1)C(C)C)C(C)C [RZ3] (Quinoxaline2carbonyl-[dS][NMeAbu][NMeV]V[dP]GV[NMeV][NMeAbu]-{Ethylenediamine-Quinoxaline2carbonyl}),65.8 µM,72.3 µM,93.8 µM,98.1 µM,
CC[C@H](NC(=O)[C@@H](NC(=O)[C@@H](NC(=O)CNC(=O)[C@H]1CCCN1C(=O)[C@@H](NC(=O)[C@@H](NC(=O)[C@H](CC)NC(=O)[C@@H](CO)NC(=O)c1cnc2ccccc2n1)C(C)C)C(C)C)C(C)C)C(C)C)C(=O)NCCNC(=O)c1cnc2ccccc2n1 [RZ4] (Quinoxaline2carbonyl-[dS][Abu]VV[dP]GVV[Abu]-{Ethylenediamine-Quinoxaline2carbonyl}),,,,,"IC50 [1, 7]: 34.9 µM; IC50 [2, 8]: 75 µM; IC50 [3, 6]: 30.9 µM; IC50 [4, 9]: > 100 µM"
CC[C@@H](C(=O)N(C)[C@H](C(=O)N[C@H](C(=O)N1CCC[C@@H]1C(=O)NCC(=O)N[C@H](C(=O)N(C)[C@H](C(=O)N(C)[C@@H](CC)C(=O)NCCNC(=O)c1cnc2ccccc2n1)C(C)C)[C@@H](C)O)[C@@H](C)O)C(C)C)N(C)C(=O)[C@H](CO)NC(=O)c1cnc2ccccc2n1 [RZ5] (Quinoxaline2carbonyl-S[NMeAbu][NMeV]T[dP]GT[NMeV][NMeAbu]-{Ethylenediamine-Quinoxaline2carbonyl}),70.7 µM,84.8 µM,> 100 µM,84.6 µM,
CC[C@H](NC(=O)[C@H](CO)NC(=O)c1cnc2ccccc2n1)C(=O)N[C@H](C(=O)N[C@H](C(=O)N1CCC[C@@H]1C(=O)NCC(=O)N[C@H](C(=O)N[C@H](C(=O)N[C@@H](CC)C(=O)NCCNC(=O)c1cnc2ccccc2n1)C(C)C)[C@@H](C)O)[C@@H](C)O)C(C)C [RZ6] (Quinoxaline2carbonyl-S[Abu]VT[dP]GTV[Abu]-{Ethylenediamine-Quinoxaline2carbonyl}),84.5 µM,83.1 µM,45.6 µM,55.3 µM,
CC[C@@H](C(=O)NCCNC(=O)c1cnc2ccccc2n1)N(C)C(=O)[C@H](C(C)C)N(C)C(=O)[C@@H](NC(=O)CNC(=O)[C@H]1CCCN1C(=O)[C@@H](NC(=O)[C@H](C(C)C)N(C)C(=O)[C@H](CC)N(C)C(=O)[C@@H](CO)NC(=O)c1cnc2ccccc2n1)[C@@H](C)O)[C@@H](C)O [RZ7] (Quinoxaline2carbonyl-[dS][NMeAbu][NMeV]T[dP]GT[NMeV][NMeAbu]-{Ethylenediamine-Quinoxaline2carbonyl}),72.8 µM,90.7 µM,84.5 µM,> 100 µM,
CC[C@H](NC(=O)[C@@H](NC(=O)[C@@H](NC(=O)CNC(=O)[C@H]1CCCN1C(=O)[C@@H](NC(=O)[C@@H](NC(=O)[C@H](CC)NC(=O)[C@@H](CO)NC(=O)c1cnc2ccccc2n1)C(C)C)[C@@H](C)O)[C@@H](C)O)C(C)C)C(=O)NCCNC(=O)c1cnc2ccccc2n1 [RZ8] (Quinoxaline2carbonyl-[dS][Abu]VT[dP]GTV[Abu]-{Ethylenediamine-Quinoxaline2carbonyl}),23.4 µM,39.8 µM,37.1 µM,44.5 µM,
CC[C@H](C)[C@H](NC(=O)CNC(=O)[C@H]1CCCN1C(=O)[C@@H](NC(=O)[C@H](C(C)C)N(C)C(=O)[C@H](CC)N(C)C(=O)[C@H](CO)NC(=O)c1cnc2ccccc2n1)[C@@H](C)CC)C(=O)N(C)[C@H](C(=O)N(C)[C@@H](CC)C(=O)NCCNC(=O)c1cnc2ccccc2n1)C(C)C [RZ9] (Quinoxaline2carbonyl-S[NMeAbu][NMeV]I[dP]GI[NMeV][NMeAbu]-{Ethylenediamine-Quinoxaline2carbonyl}),60.9 µM,84.4 µM,50.9 µM,90.6 µM,
CC[C@H](NC(=O)[C@H](CO)NC(=O)c1cnc2ccccc2n1)C(=O)N[C@H](C(=O)N[C@H](C(=O)N1CCC[C@@H]1C(=O)NCC(=O)N[C@H](C(=O)N[C@H](C(=O)N[C@@H](CC)C(=O)NCCNC(=O)c1cnc2ccccc2n1)C(C)C)[C@@H](C)CC)[C@@H](C)CC)C(C)C [RZ10] (Quinoxaline2carbonyl-S[Abu]VI[dP]GIV[Abu]-{Ethylenediamine-Quinoxaline2carbonyl}),26.8 µM,53.8 µM,14.1 µM,62.1 µM,
CC[C@H](C)[C@H](NC(=O)CNC(=O)[C@H]1CCCN1C(=O)[C@@H](NC(=O)[C@H](C(C)C)N(C)C(=O)[C@H](CC)N(C)C(=O)[C@@H](CO)NC(=O)c1cnc2ccccc2n1)[C@@H](C)CC)C(=O)N(C)[C@H](C(=O)N(C)[C@@H](CC)C(=O)NCCNC(=O)c1cnc2ccccc2n1)C(C)C [RZ11] (Quinoxaline2carbonyl-[dS][NMeAbu][NMeV]I[dP]GI[NMeV][NMeAbu]-{Ethylenediamine-Quinoxaline2carbonyl}),96.3 µM,64.7 µM,24.3 µM,78.9 µM,
CC[C@H](NC(=O)[C@@H](NC(=O)[C@@H](NC(=O)CNC(=O)[C@H]1CCCN1C(=O)[C@@H](NC(=O)[C@@H](NC(=O)[C@H](CC)NC(=O)[C@@H](CO)NC(=O)c1cnc2ccccc2n1)C(C)C)[C@@H](C)CC)[C@@H](C)CC)C(C)C)C(=O)NCCNC(=O)c1cnc2ccccc2n1 [RZ12] (Quinoxaline2carbonyl-[dS][Abu]VI[dP]GIV[Abu]-{Ethylenediamine-Quinoxaline2carbonyl}),82.2 µM,> 100 µM,55.4 µM,71.6 µM,
"CC(C)[C@H]1C(=O)OC[C@@H](NC(=O)c2cnc3ccccc3n2)C(=O)N[C@@H](C)C(=O)N(C)[C@H]2CSSC[C@@H](C(=O)N1C)N(C)C(=O)[C@H](C)NC(=O)[C@H](NC(=O)c1cnc3ccccc3n1)COC(=O)[C@H](C(C)C)N(C)C2=O [Triostin A, reference compound] (I: Quinoxaline2carbonyl-[dS]A[NMeC][NMeV] / II: Quinoxaline2carbonyl-[dS]A[NMeC][NMeV]; ester I:1-II:C, I:C-II:1; disulfide I:3-II:3)",,,,,"IC50 [1, 7]: 23.5 µM; IC50 [2, 8]: 24.7 µM; IC50 [3, 6]: 18.8 µM; IC50 [4, 9]: 23.1 µM"
echinomycin,,,,,DNase I footprint (DNA binding) [5]: Clear footprints
